Measured values reported in patent US11492362B1, “Pyridine derivatives for the treatment of hyperproliferative diseases” (King Abdulaziz University, priority 2022, dated 2022).
In brackets after ≈: the same amount, converted by molar mass. Values belong to the compound of their own block, whether it stands above or below them.

Columns and labels:
[1] = system: caspase 3/7 in Leukemia HL-60 cells; assay: Activated caspase 3/7 assay; type: cell-based, human; conditions: HL-60, IC50 concentration, 24 h, flow cytometry; untreated control 0.54%
Method: Activities of caspases-3 and -7 were measured using DRG Caspase-3 (human) ELISA (EIA-4860) kit (DRG International Inc., USA), Invitrogen. Caspase-7 (Active) (human) ELISA kit, Catalog #KHO1091 (96 tests) (Invitrogen Corporation, USA) according to the manufacturer's instructions.
The activation of caspase 3/7 was determined in compound 4 treated Leukemia HL-60 cells at IC50 concentration using green flow cytometry assay for 24 h.

[2] = system: HL-60 (leukemia) cell lines; assay: In vitro cytotoxicity, MTT assay; type: cell-based; conditions: Homo sapiens, 72 h; HL-60, MTT, 3 days
Method: Cells suspended in medium (2×10^4 cells/mL) were plated in 96-well culture plates and incubated at 37° C. in a 5% CO2 incubator. After 12 h, the test sample (2 μL) was added to the cells (2×10^4) in 96-well plates and cultured at 37° C. for 3 days. The cultured cells were mixed with 20 μL of MTT solution and incubated for 4 h at 37° C. The supernatant was carefully removed from each well and 100 μL of DMSO was added to each well to dissolve the formazan crystals which were formed by the cellular reduction of MTT. After mixing with a mechanical plate mixer, the absorbance of each well was measured by a microplate reader using a test wavelength of 570 nm. The results were expressed as the IC50 (μM), which induces a 50% inhibition of cell growth of the treated cells when compared to the growth of control cells. Each experiment was performed at least 3 times. There was a good reproducibility between the replicate wells with standard error [46].
In vitro cytotoxicity of the synthesized compounds 4, 6, and 7 was determined using the MTT assay against HL-60 (leukemia) cell lines. Doxorubicin (Doxo) one of the most efficient anticancer agentd was utilized as a reference compound in this study.

HL-60 = assay: Confluency analysis; type: cell-based, human; conditions: HL-60, 50 μg/mL
Leukemia HL-60 cell line = assay: Cell cycle analysis, PI staining and DNA flow cytometry; type: cell-based, human; conditions: HL-60, compound at its IC50 concentration
Method: (§1) For cell cycle analysis, cell pellets were fixed with 70% ethanol on ice for 15 min and collected again. The collected pellets were incubated with propidium iodide (PI) staining solution ([…], 0.1 mg/mL RNaseA, 0.05% Triton X-100) at room temperature for 1 hour and analyzed by Gallios® flow cytometer (Beckman Coulter, Brea, Calif., USA). Apoptosis detection was performed by FITC Annexin V/PI commercial kit (Becton Dickenson, Franklin Lakes, N.J., USA) following the manufacturer's protocol. The samples were analyzed by fluorescence-activated cell sorting (FACS) with a Gallios® flow cytometer (Beckman Coulter, Brea, Calif., USA) within 1 h after staining. Data were analyzed using Kaluzav® 1.2 (Beckman Coulter).
Cell cycle analysis was assessed in Leukemia HL-60 cell line after staining the nuclei with propidium iodide (PI) followed by DNA flow cytometry analysis.

Leukemia HL-60 cells = assay: Annexin V-FITC/PI apoptosis detection; type: cell-based, human; conditions: HL-60, Annexin V-FITC/PI
Method: as §1
Moreover, compound 4 increased the percentage of late apoptotic cells by 43.07-more than untreated control.

SMILES: c1cc(-c2ccn3cnnc3n2)nc(-c2ccn3cnnc3n2)c1 [Compound 4, 2,6-bis([1,2,4]triazolo[4,3-a]pyrimidin-7-yl)pyridine]
- level of caspase 3/7 percentage [1]: 10.04%
- IC50 [2]: 3.28 ± 0.13 µg/mL (≈ 10.4 µM)
- cell morphology in the image (HL-60): round, high-contrast objects
- percentage of cells at pre-G1 peak (Leukemia HL-60 cell line; control 1.42%): 19.32%
- cell percentage in the G2/M phase (Leukemia HL-60 cell line; untreated control 16.80%): 51.84%
- cell survival percentage in comparison with untreated control (Leukemia HL-60 cells): sharp decrease
- increase of percentage of early apoptotic cells versus untreated control (Leukemia HL-60 cells): 8.14 fold
- increase of percentage of late apoptotic cells versus untreated control (Leukemia HL-60 cells): 43.07

SMILES: COc1cccc2c1C(=O)c1c(O)c3c(c(O)c1C2=O)C[C@@](O)(C(=O)CO)C[C@@H]3O[C@H]1C[C@H](N)[C@H](O)[C@H](C)O1 [Dox, Doxorubicin, reference compound]
- IC50 [2]: 2.2 ± 0.08 µg/mL (≈ 4.05 µM)

SMILES: N#Cc1c(N/C=C\C(=O)c2cccc(C(=O)/C=C\Nc3sc4c(c3C#N)CCCC4)n2)sc2c1CCCC2 [Compound 7, 2,2′-(((1Z,1′Z)-pyridine-2,6-diylbis(3-oxoprop-1-ene-3,1-diyl))bis(azanediyl))bis(4,5,6,7-tetrahydrobenzo[b]thiophene-3-carbonitrile)]
- IC50 [2]: 28.5 ± 1.56 µg/mL (≈ 52.9 µM)

- melting point: 236.4 to 237.2 °C
SMILES: CN(C)C=CC(=O)c1cccc(C(=O)C=CN(C)C)n1 [Compound 2, 2,6-Bis(3-dimethylamino-1-oxoprop-2-en-yl)pyridine]

SMILES: CN(C)/C=C/C(=O)c1cccc(C(=O)/C=C\Nc2sc3c(c2C#N)CCCC3)n1 [Compound 6, 2-(((Z)-3-(6-((E)-3-(dimethylamino)acryloyl)pyridin-2-yl)-3-oxoprop-1-en-1-yl)amino)-4,5,6,7-tetrahydrobenzo[b]thiophene-3-carbonitrile]
- IC50 [2]: 3.66 ± 0.11 µg/mL (≈ 9 µM)
